# Measured values as given in US20220033405A1, “PHARMACEUTICAL COMPOSITION FOR PREVENTING OR TREATING CANCER CONTAINING PLK1 INHIBITOR AS ACTIVE INGREDIENT” (NATIONAL CANCER CENTER, priority 2018, published 2022).
# Key:
# [1] = tested on: SNU449 human liver cancer cells; experiment: Reactivity of M2 variants in SNU449; assay type: cell-based
# Experimental: To examine the ability of the compound to inhibit the growth of the breast cancer cell line, the compounds was treated at each indicated μM concentration 1 and 3 days after cell attachment, and the control was treated with a 0.1% solvent (DMSO). After another two days, the cell lines that were attached to the culture plate and grew were rinsed with 1×PBS and treated with 4% paraformaldehyde at room temperature for 10 minutes to fix the cells. Then, after cells were rinsed twice with PBS, the fixed cells were treated with a 0.5% Triton X-100 solution and reacted at room temperature for 15 minutes, rinsed another three times with PBS, and then treated with a DAPI reagent at 0.5 μg/ml, and reacted at 37° C. for 10 minutes to stain the cell nuclei. After the cells were additionally rinsed once with PBS, cells stained with DAPI were photographed by Cytation 3, and the resulting images were analyzed with Gen5 software (Biotek, USA). Meanwhile, cells that grew in a floating manner without being attached to the culture plate were treated with a 4% paraformaldehyde solution, reacted at room temperature for 10 minutes to fix the cells, and then photographed in a bright field by Cytation3, and the resulting images were analyzed by Gen5 software (Biotek, USA).
# To analyze the ability to inhibit the growth of liver cancer cell lines, 6.6×10^3 HepG2 cells per well, 1×10^3 cells of each of Hep3B, SNU-475, and SNU-449 per well, and 2×10^3 SNU-387 cells per well were aliquoted in a 96-well plate, cultured in the same manner as described above, treated with Compound 2 (M2), Compound 3 (M4), Compound 4 (M21), Compound 5 (M23), and Compound 6 (M25), and then the ability to inhibit the growth of cells was analyzed.
# PLK1 = PLK1 position in the cell (r-tubulin, PLK1, DAPI staining); assay type: cell-based; conditions: middle stage of cell division
# [2] = tested on: NCAPG2 in HEK293 cell line; experiment: Staining of NCAPG2 in chromosome arm and kinetochore; assay type: cell-based; conditions: HEK293, 50 uM, 24 hours, compared to the control
# SNU-449 = experiment: Cell cycle by flow cytometry, phospho-histone H3 (Ser10) staining; assay type: cell-based; conditions: M2 20, 40, 80 μM, BI2536 20 nM
# Experimental: Flow cytometry equipment was used to confirm the effect on the cell cycle in the case of treatment with Compound 2 (M2). SNU-449, which is one of the liver cancer cell lines, were treated with Compound 2 (M2) at each of concentrations of 20, 40, and 80 μM after 1 day and 3 days, and were harvested after another 2 days.
# Furthermore, it was intended to more specifically stain a cell population that stopped in the metaphase of cell division using a phospho-histone H3 (Ser10) antibody capable of specifically staining only the cells that stopped in the metaphase of cell division. As a positive control, cells were treated with BI2536 known as a PLK1 kinase inhibitor at 20 nM and used to observe cells in the metaphase of cell division and an increase in the G2/M phase.
# [3] = tested on: HepG2 orthotopic xenograft; experiment: Liver cancer orthotopic xenograft model (HepG2), 5 and 20 mg/kg; assay type: in vivo, BalB/c nude mice; conditions: M2 5 and 20 mg/kg i.p. once every two days, 10 treatments for 3 weeks
# Experimental: Another experiment was performed on the same liver cancer cell line by varying the experimental method. 5×10^6 HepG2 cells were injected into the backs of BalB/c nude mice, and when a sufficient cancer tissue was formed about 3 weeks later, the tissue was removed, uniformly cut into 1 mm^3, and transplanted into the right median lobe of the liver by excising the abdomen within 1 cm.
# Small spots were confirmed on the MRI image about 10 days after transplanting the liver cancer tissue into 20 BalB/C nude mice by the above method, so that rodents with well-established liver cancer were divided into 3 groups (about 50 to 60%) (see FIG. 21A), a control and a hit (M2) material at 5 mg/kg and 20 mg/kg were injected into the abdominal cavity once every two days using less than 1.5% DMSO as a solvent (vehicle), and once a week, MRI images were used to select (follow up) rodents with constant tissue growth. Then, in a state in which the rapidly growing cancer tissue was 1 cm or less, the cancer tissue was observed after sacrificing the mice (10 treatments for 3 weeks).
smiles,measurement,setting,value
"Cn1c2nc(=O)[nH]c(=O)c-2nc2ccccc21 [Compound 2, 10-methyl-2H,3H,4H,10H-benzo[g]pteridine-2,4-dione]",number of cancer cells,[1],the number of cancer cells was remarkably reduced in a dose-dependent manner
same,position of PLK1,PLK1,difficult for PLK1 to be located in a normal position
same,r-tubulin located in the centrosome (staining / position),PLK1,weakly stained
same,degree of staining of NCAPG2 in the chromosome arm and kinetochore,[2],reduced
same,proportion of polyploid cells,SNU-449,not increased at all the treated concentrations
same,proportion of phospho-histone H3-positive cells,SNU-449; compared to CT,decreased
same,volume of the cancer tissue,[3],reduced remarkably as the dose of M2 was increased
same,weight of the cancer tissue,[3],reduced remarkably as the dose of M2 was increased
